# In PubChem BioAssay AID2060621 (Molecular Pharmacology Branch, DTP, NCI, 2025):
# pIC50: −log10 of the molar value. Several values for one entry are separate records, joined by “and”; a condition that tells them apart may be missing. Identical values can stand only once.
# Tested on: 324938-238-R-J1-PDC complex spheroids viability
# Experiment: Anticancer human tumor 324938-238-R-J1-PDC patient-derived bladder carcinoma cell line growth inhibition [CLK]
# Settings: for viability, T/C: stronger effect = lower value
# How it was run: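 Patient-derived tumor cells grown as complex spheroids with HUVEC endothelial cells and mesenchymal stem cells, treated with drug combinations. Concentrations descend in half-log steps from near clinical Cmax, or from 10 microM if Cmax unknown.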
# [1] = curve of first compound, second compound 0.0316 µM
# [2] = curve of first compound, second compound 0.1 µM
# [3] = curve of first compound, second compound 0.316 µM
# [4] = curve of first compound, second compound 1 µM
# [5] = curve of first compound, second compound 3.16 µM
# [6] = curve of first compound, second compound 10 µM
# [7] = second compound 0.0316 µM, first compound 0.0316 µM
# [8] = second compound 0.0316 µM, first compound 0.1 µM
# [9] = second compound 0.0316 µM, first compound 0.316 µM
# [10] = second compound 0.0316 µM, first compound 1 µM
# [11] = second compound 0.0316 µM, first compound 3.16 µM
# [12] = second compound 0.0316 µM, first compound 10 µM
# [13] = second compound 0.1 µM, first compound 0.0316 µM
# [14] = second compound 0.1 µM, first compound 0.1 µM
# [15] = second compound 0.1 µM, first compound 0.316 µM
# [16] = second compound 0.1 µM, first compound 1 µM
# [17] = second compound 0.1 µM, first compound 3.16 µM
# [18] = second compound 0.1 µM, first compound 10 µM
# [19] = second compound 0.316 µM, first compound 0.0316 µM
# [20] = second compound 0.316 µM, first compound 0.1 µM
# [21] = second compound 0.316 µM, first compound 0.316 µM
# [22] = second compound 0.316 µM, first compound 1 µM
# [23] = second compound 0.316 µM, first compound 3.16 µM
# [24] = second compound 0.316 µM, first compound 10 µM
# [25] = second compound 1 µM, first compound 0.0316 µM
# [26] = second compound 1 µM, first compound 0.1 µM
# [27] = second compound 1 µM, first compound 0.316 µM
# [28] = second compound 1 µM, first compound 1 µM
# [29] = second compound 1 µM, first compound 3.16 µM
# [30] = second compound 1 µM, first compound 10 µM
# [31] = second compound 3.16 µM, first compound 0.0316 µM
# [32] = second compound 3.16 µM, first compound 0.1 µM
# [33] = second compound 3.16 µM, first compound 0.316 µM
# [34] = second compound 3.16 µM, first compound 1 µM
# [35] = second compound 3.16 µM, first compound 3.16 µM
# [36] = second compound 3.16 µM, first compound 10 µM
# [37] = second compound 10 µM, first compound 0.0316 µM
# [38] = second compound 10 µM, first compound 0.1 µM
# [39] = second compound 10 µM, first compound 0.316 µM
# [40] = second compound 10 µM, first compound 1 µM
# [41] = second compound 10 µM, first compound 3.16 µM
# [42] = second compound 10 µM, first compound 10 µM
# 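Further: viability read after seven days of drug exposure.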
# 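Wherever viability, T/C is given: 100% = DMSO vehicle control wells.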
compound,measurement,setting,value
C=CC(=O)Nc1cc(Nc2nccc(-c3cn(C)c4ccccc34)n2)c(OC)cc1N(C)CCN(C)C,"viability, T/C",compound 0.000949 µM,71.7% and 84%
same,"viability, T/C",compound 0.003 µM,79.8% and 82.5%
same,"viability, T/C",compound 0.00949 µM,62.2% and 65.2%
same,"viability, T/C",compound 0.03 µM,69.3% and 61.8%
same,"viability, T/C",compound 0.0949 µM,36.1% and 45.5%
same,"viability, T/C",compound 0.3 µM,22.2% and 22.7%
same,pIC50,curve of compound,7.23 and 7.21
CC(Nc1ccc2c(c1)OCCn1cc(N3C(=O)OCC3C(F)F)nc1-2)C(N)=O (stereo unspecified) + CNC(=O)c1ccc(Nc2nc(OC3CCCC3)c3c(-c4ccc5nc(C)oc5c4)c[nH]c3n2)c(OC)c1,pIC50,[1],6.77
same,pIC50,[2],> 7.50
same,pIC50,[3],> 7.50
same,pIC50,[4],> 7.50
same,pIC50,[5],> 7.50
same,pIC50,[6],> 7.50
same,"viability, T/C",[7],78.8%
same,"viability, T/C",[8],52.5%
same,"viability, T/C",[9],42.1%
same,"viability, T/C",[10],35.5%
same,"viability, T/C",[11],22.2%
same,"viability, T/C",[12],15.3%
same,"viability, T/C",[13],32.2%
same,"viability, T/C",[14],28.1%
same,"viability, T/C",[15],25%
same,"viability, T/C",[16],21.1%
same,"viability, T/C",[17],20.2%
same,"viability, T/C",[18],13.6%
same,"viability, T/C",[19],14%
same,"viability, T/C",[20],10.9%
same,"viability, T/C",[21],9.84%
same,"viability, T/C",[22],9.27%
same,"viability, T/C",[23],6.34%
same,"viability, T/C",[24],5.89%
same,"viability, T/C",[25],13.4%
same,"viability, T/C",[26],12.3%
same,"viability, T/C",[27],8.46%
same,"viability, T/C",[28],6.86%
same,"viability, T/C",[29],5.9%
same,"viability, T/C",[30],4.88%
same,"viability, T/C",[31],13.1%
same,"viability, T/C",[32],9.57%
same,"viability, T/C",[33],9.31%
same,"viability, T/C",[34],7.44%
same,"viability, T/C",[35],7.17%
same,"viability, T/C",[36],4.87%
same,"viability, T/C",[37],14.4%
same,"viability, T/C",[38],9.66%
same,"viability, T/C",[39],9.38%
same,"viability, T/C",[40],7.73%
same,"viability, T/C",[41],7.48%
same,"viability, T/C",[42],4.64%
COc1cccc2c1C(=O)c1c(O)c3c(c(O)c1C2=O)CC(O)(C(=O)CO)CC3OC1CC(N)C(O)C(C)O1 (stereo unspecified) + CNC(=O)c1ccc(Nc2nc(OC3CCCC3)c3c(-c4ccc5nc(C)oc5c4)c[nH]c3n2)c(OC)c1,pIC50,[1],> 7.50
same,pIC50,[2],> 7.50
same,pIC50,[3],> 7.50
same,pIC50,[4],> 7.50
same,pIC50,[5],> 7.50
same,pIC50,[6],> 7.50
same,"viability, T/C",[7],19.3%
same,"viability, T/C",[8],16.8%
same,"viability, T/C",[9],9.74%
same,"viability, T/C",[10],0.7%
same,"viability, T/C",[11],0.12%
same,"viability, T/C",[12],0.14%
same,"viability, T/C",[13],18.5%
same,"viability, T/C",[14],20.2%
same,"viability, T/C",[15],9.65%
same,"viability, T/C",[16],0.48%
same,"viability, T/C",[17],0.11%
same,"viability, T/C",[18],0.15%
same,"viability, T/C",[19],19.1%
same,"viability, T/C",[20],16.3%
same,"viability, T/C",[21],9.12%
same,"viability, T/C",[22],0.49%
same,"viability, T/C",[23],0.16%
same,"viability, T/C",[24],0.13%
same,"viability, T/C",[25],17.2%
same,"viability, T/C",[26],11.7%
same,"viability, T/C",[27],7.13%
same,"viability, T/C",[28],0.58%
same,"viability, T/C",[29],0.14%
same,"viability, T/C",[30],0.15%
same,"viability, T/C",[31],20.2%
same,"viability, T/C",[32],12.2%
same,"viability, T/C",[33],6.62%
same,"viability, T/C",[34],0.36%
same,"viability, T/C",[35],0.14%
same,"viability, T/C",[36],0.16%
same,"viability, T/C",[37],18.3%
same,"viability, T/C",[38],13.4%
same,"viability, T/C",[39],5.95%
same,"viability, T/C",[40],0.31%
same,"viability, T/C",[41],0.19%
same,"viability, T/C",[42],0.23%
